According to ChEMBL document CHEMBL5543168, “Discovery of Urea Derivatives of Celastrol as Selective Peroxiredoxin 1 Inhibitors against Colorectal Cancer Cells” (J Med Chem, 2024):
pIC50: −log10 of the molar value. Calls of active or inactive are those of the source. The rule behind the calls is not given here.

Columns and labels:
Peroxiredoxin-4 = target: T1, Peroxiredoxin-4 (Homo sapiens, UniProt Q13162); assay: Inhibition of recombinant PRDX4 (unknown origin) using H2O2 as substrate preincubated for 0.5 hrs followed by substrate addition by TRX-TrxR-NADPH coupling assay
T1 sequence (Q13162 whole entry): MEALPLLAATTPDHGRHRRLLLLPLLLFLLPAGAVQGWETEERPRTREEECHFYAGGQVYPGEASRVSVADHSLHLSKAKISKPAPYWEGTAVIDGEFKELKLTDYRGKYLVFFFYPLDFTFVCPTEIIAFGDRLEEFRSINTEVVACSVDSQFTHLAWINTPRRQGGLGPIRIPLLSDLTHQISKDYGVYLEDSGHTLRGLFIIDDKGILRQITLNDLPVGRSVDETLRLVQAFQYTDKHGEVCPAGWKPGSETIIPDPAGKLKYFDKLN

[1] = Cmax in mouse at 2 mg/kg, iv measured for 24 hrs by LC-MS/MS analysis; format: ADME, organism-based; details: in vivo
[2] = Acute toxicity in C57BL/[…] 6J mouse assessed as pathological change in heart at 20 mg/kg, ip measured for 2 weeks by H and E staining based analysis; format: organism-based; details: in vivo, 336 h
SW-620 [3] = assay: Induction of cell cycle arrest at G2 phase in human SW620 cells at 2 uM incubated for 24 hrs by PI staining based flow cytometry (reference value: 6.77 %); format: functional
SW-620 [4] = assay: Anti-proliferative activity against human SW620 cells xenografted in BALB/c nude mouse at 2 mg/kg, ip qd for 16 days by TUNEL analysis; format: functional, organism-based; details: time 16.0 day
SW-620 [5] = assay: Induction of cell cycle arrest at G1 phase in human SW620 cells at 0.5 uM incubated for 24 hrs by PI staining based flow cytometry (reference value: 32.4 %); format: functional
SW-620 [6] = assay: cells; details: Homo sapiens, SW-620, 48 h, read-out: Activity
Description: Induction of apoptosis in human SW620 cells assessed as viable cells at 0.5 uM incubated for 48 hrs by Annexin V-FITC/PI staining based flow cytometry (Rvb = 90.7 %)

SW-620 [7] = assay: Induction of DNA damage in human SW620 cells assessed as increase in gamma-H2AX level incubated for 48 hrs by Western blot analysis; format: functional, cell-based; details: dose 0.25-2 µM
SW-620 [8] = assay: cells; details: Homo sapiens, SW-620, 48 h, read-out: Activity; remark: listed apart in the source
Description: Induction of apoptosis in human SW620 cells assessed as viable cells at 1 uM incubated for 48 hrs by Annexin V-FITC/PI staining based flow cytometry (Rvb = 90.7 %)

SW-620 [9] = assay: Induction of cell cycle arrest at G2/M phase in human SW620 cells at 0.5 to 2 uM incubated for 48 hrs by PI staining based flow cytometry relative to control; format: functional; details: dose 0.5-2 µM
SW-620 [10] = assay: Induction of mitochondrial membrane potential depolarization in human SW620 cells assessed as decrease in fluorescence intensity ratio of JC1-stained aggregates to monomers incubated for 48 hrs by CLSM analysis; format: functional, cell-based; details: dose 0.5-2 µM
SW-620 [11] = assay: Induction of cell cycle arrest at G1 phase in human SW620 cells at 1 uM incubated for 24 hrs by PI staining based flow cytometry (reference value: 32.4 %); format: functional
SW-620 [12] = assay: Induction of apoptosis in human SW620 cells assessed as decrease in Bcl-xl level incubated for 48 hrs by Western blot analysis; format: functional, cell-based; details: dose 0.25-2 µM
SW-620 [13] = assay: Antitumor activity against human SW620 cells xenografted in BALB/c nude mouse at 2 mg/kg, ip qd for 16 days relative to control; format: functional; details: SW-620, 384 h, time 16 day, read-out: TGI
SW-620 [14] = assay: Induction of mitochondrial membrane potential depolarization in human SW620 cells assessed as reduction in red fluorescence incubated for 48 hrs by JC1-staining based CLSM analysis; format: functional, cell-based; details: dose 0.5-2 µM
[15] = Acute toxicity in C57BL/[…] 6J mouse assessed as pathological change in liver at 20 mg/kg, ip measured for 2 weeks by H and E staining based analysis; format: organism-based; details: in vivo, 336 h
[16] = target: T2, Thioredoxin-dependent peroxide reductase, mitochondrial (Homo sapiens, UniProt P30048); assay: Inhibition of recombinant PRDX3 (unknown origin) using H2O2 as substrate preincubated for 0.5 hrs followed by substrate addition by TRX-TrxR-NADPH coupling assay
T2 sequence (P30048 whole entry): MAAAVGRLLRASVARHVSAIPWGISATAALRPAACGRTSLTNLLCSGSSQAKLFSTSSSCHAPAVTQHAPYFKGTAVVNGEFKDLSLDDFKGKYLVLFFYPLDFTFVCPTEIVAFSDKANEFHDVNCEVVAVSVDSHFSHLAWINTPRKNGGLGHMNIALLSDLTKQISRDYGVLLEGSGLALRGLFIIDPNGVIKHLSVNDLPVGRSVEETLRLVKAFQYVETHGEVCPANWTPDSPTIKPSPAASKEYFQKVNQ

SW-620 [17] = assay: Antitumor activity against human SW620 cells xenografted in BALB/c nude mouse assessed as decrease in Ki-67 level at 2 mg/kg, ip qd for 16 days by IHC analysis; format: functional, organism-based; details: time 16.0 day
[18] = Antiproliferative activity against human LX2 cells; format: toxicity, cell-based, LX-2
[19] = Selectivity ratio of IC50 for HEK293T cells to IC50 for human SW620 cells; format: functional
SW-620 [20] = assay: cells; details: Homo sapiens, SW-620, 48 h, read-out: Activity; remark: listed apart in the source
Description: Induction of apoptosis in human SW620 cells assessed as viable cells at 2 uM incubated for 48 hrs by Annexin V-FITC/PI staining based flow cytometry (Rvb = 90.7 %)

Peroxiredoxin-1 = target: T3, Peroxiredoxin-1 (Homo sapiens, UniProt Q06830); assay: Inhibition of recombinant PRDX1 (unknown origin) using H2O2 as substrate preincubated for 0.5 hrs followed by substrate addition by TRX-TrxR-NADPH coupling assay
T3 sequence (Q06830 whole entry): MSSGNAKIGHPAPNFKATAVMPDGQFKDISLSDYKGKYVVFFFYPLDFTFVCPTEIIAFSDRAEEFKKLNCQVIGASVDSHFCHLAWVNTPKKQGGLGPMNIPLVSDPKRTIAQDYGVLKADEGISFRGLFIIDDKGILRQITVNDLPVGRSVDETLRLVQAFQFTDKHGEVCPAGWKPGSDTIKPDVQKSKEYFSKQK

SW-620 [21] = assay: Inhibition of cell viability in human SW620 cells incubated for 72 hrs by Cell Titer Glo assay; format: functional, cell-based; details: SW-620, 72 h
HCT-116 = assay: Inhibition of cell viability in human HCT-116 cells incubated for 72 hrs by Cell Titer Glo assay; format: functional, cell-based; details: HCT-116, 72 h
[22] = target: T4, Peroxiredoxin-1 (Homo sapiens) (UniProt Q06830)
T4 sequence (whole entry): T3 sequence (Q06830 whole entry)
Description: Binding affinity to recombinant PRDX1 (unknown origin)assessed as change in melting temperature by protein thermal shift assay

SW-620 [23] = assay: Antitumor activity against human SW620 cells xenografted in BALB/c nude mouse assessed as nuclear pyknosis in tumor cells at 2 mg/kg, ip qd for 16 days by H and E staining based analysis; format: functional, organism-based; details: time 16.0 day
SW-620 [24] = assay: Induction of mitochondrial membrane potential depolarization in human SW620 cells assessed as JC-1-stained red cells upto 2 uM incubated for 48 hrs by flow cytometry (reference value: 89.8 %); format: functional; details: up to 2 µM
SW-620 [25] = assay: Induction of apoptosis in human SW620 cells assessed as decrease in Bcl-2 level incubated for 48 hrs by Western blot analysis; format: functional, cell-based; details: dose 0.25-2 µM

## COC(=O)C1(NC(=O)N[C@]2(C)CC[C@]3(C)CC[C@]4(C)C5=CC=C6C(=CC(=O)C(O)=C6C)[C@]5(C)CC[C@@]4(C)[C@@H]3C2)CCC1
Peroxiredoxin-4
  pIC50: < 4.30
[1]
  Cmax: 203 ng/mL
[2]
  Activity: Non-Toxic
SW-620 [3]
  Activity: 17.4%
SW-620 [4]
  Activity: Active
SW-620 [5]
  Activity: 33.5%
SW-620 [6]
  viability at 0.5 µM: 88.5%
SW-620 [7]
  Activity: Dose-Dependent Effect
SW-620 [8]
  viability at 1 µM: 78.8%
SW-620 [9]
  Activity: 7.1%
SW-620 [10]
  Activity: Dose-Dependent Effect
SW-620 [11]
  Activity: 39.7%
SW-620 [12]
  Activity: Dose-Dependent Effect
SW-620 [13]
  inhibition in vivo at 2 mg/kg: 45.4%
SW-620 [14]
  Activity: Dose-Dependent Effect
[15]
  Activity: Non-Toxic
[16]
  pIC50: < 4.30
SW-620 [17]
  Activity: Active
[18]
  pIC50: ~6.00
[19]
  Selectivity ratio: 2
SW-620 [20]
  viability at 2 µM: 41.5%
Peroxiredoxin-1
  pIC50: 6.46
SW-620 [21]
  pIC50: 6.49
HCT-116
  pIC50: 6.36
[22]
  ΔTm: -7.5 °C
SW-620 [23]
  Activity: Active
SW-620 [24]
  Activity: 39.2%
SW-620 [25]
  Activity: Dose-Dependent Effect
